# Data from patent EP4606801A1, “FUSED HETEROCYCLIC COMPOUND AND USE THEREOF” (Chengdu Zenitar Biomedical Technology Co., Ltd., priority 2022, dated 2024).
# Key:
# SUM14PT tumor cells = assay: In-vivo pharmacodynamic study on subcutaneous xenograft tumor model of breast cancer SUM14PT; parameters: species or system nude mice; conditions: Fig. 4
# Description: Experimental procedure: In this study, a mice model was established by subcutaneously inoculating SUM14PT tumor cells. Eight groups were divided for the experiment, with 6 mice in each group. The negative control group (Control) received normal saline at 0.2 mL per mice per administration, given orally once per day; the carboplatin control group (Carboplatin, Car) received 20 mg/kg at 0.2 mL per mice per administration, administered via intraperitoneal injection once every 7 days.
# breast cancer MDA-MB-436 [1] = assay: In-vivo pharmacodynamic study on subcutaneous xenograft tumor model of breast cancer MDA-MB-436; parameters: species or system NOD/SCID mice; conditions: for RTV / Tumor volume T/C% / Tumor weight (g) X±SD / Body weight (g) X±SD End / Tumor volume (mm^3) X±SD End: 24 days
# Description: Strain: NOD/SCID; Grade: SPF; Source: Beijing Vitron River Bio-technology Co., Ltd.
# The cells were washed 3 times with pre-cooled PBS, centrifuged at 300 g for 10 min, collected, re-suspended in PBS, and counted with a blood cell counting chamber, and the cell concentration was adjusted. After cell collection, the cell suspension was pre-cooled on ice. 100 µL of the cell suspension was administered via subcutaneous injection into the dorsal flank of the mice, and the grouped treatment was started when the tumor volume reached 200-300 mm^3.
# General observation: Observation of animals: all live experimental animals to be observed; Observation time: twice a day; Observation items: including but not limited to general performance, behavioral status, eyes, mouth, nose and mouth, ears, hair, stool, urine, genitalia and other toxic symptoms; If abnormalities are observed, provide a detailed description.
# Animal assay: all viable experimental animals scheduled for assay; Assay time: All animals were weighed before the modeling for test grouping. After modeling, the mice were weighed once every 2 days, and the weight change of the mice was recorded in real time. Effective criteria: tumor volume (TV), relative tumor volume (RTV) and relative tumor growth rate of subcutaneously implanted tumor model. […] The calculation formula of tumor volume (TV) was: TV (mm^3) = a×b2×0.5, where a and b were the long diameter and short diameter, respectively.
# The evaluation index for anti-tumor activity was the relative tumor growth rate T/C (%), and the calculation formula was as follows: T/C(%) = TRTV/CRTV × 100%; [formula]
# Where, TRTV is relative tumor volume of the treatment group; CRTV is relative tumor volume of the negative control group. Therapeutic evaluation criteria: T/C (%)> 60 is considered ineffective; T/C (%) ≤ 60, and P < 0.05 (through statistical analysis) is considered effective. Measurement of tumor weight and tumor inhibition rate (%): At the end of the treatment period, the animals were euthanize, tumor masses dissected and isolated, tumors weighed, and photographs took. The tumor inhibition rate (%) was calculated by the formula below: [formula]
# All raw data within the facility were collected manually according to the experimental scheme and the relevant guidelines of the research institution, or gathered by using a data acquisition system. Manually collected data can be transcribed into software such as Excel for analysis and reporting. The data from each group were quantitative, and the experimental data for each group of animals in the tables were expressed as mean ± standard deviation (Mean ± SD). In the figures, the experimental data ware described as mean ± standard error of the mean (Mean ± SEM). Statistical analysis, including t-tests and survival analysis, was performed by using the software such as EXCEL and GraphPad Prism.
# After 24 days of administration, the tumor-bearing mice were anesthetized and euthanized. The tumor tissues were dissected, weighed, and photographed, and the tumor inhibition rate was calculated.
# in vivo = conditions: male, SD, rat, po
# Description: Experimental procedure: The compound, a small amount of DMSO and a sodium chloride injection were added to prepare the final solution for administration. The compound was orally administered to 6 male SD rats. […] The supernatant was collected and transferred into a sample vial for assay. Range of standard curve: 10 - 10,000 ng·mL^-1.
# breast cancer MDA-MB-436 [2] = tested on: breast cancer MDA-MB-436; parameters: species or system NOD/SCID mice; conditions: mouse, in vivo
structure (smiles),measurement,setting,value
"[2H]C([2H])([2H])C([2H])([2H])c1cc2ncc(CN3CC=C(c4ccc(C(=O)NC)nc4)CC3)cc2[nH]c1=O [Compound 6, 1'-((7-(ethyl-d5)-6-oxo-5,6-dihydro-1,5-naphthyridin-3-yl)methyl)-N-methyl-1',2',3',6'-tetrahy dro-[3,4'-bipyridine]-6-carboxamide]",therapeutic efficacy in combination with carboplatin,"SUM14PT tumor cells; 1 mg/kg orally once daily + carboplatin, versus Olaparib 100 mg/kg + carboplatin",better therapeutic efficacy than Olaparib
same,"anti-tumor efficacy, monotherapy","SUM14PT tumor cells; 0.3 and 1 mg/kg orally once daily, versus Olaparib 100 mg/kg orally once daily",better anti-tumor efficacy compared to Olaparib
same,RTV,breast cancer MDA-MB-436 [1]; 0.03 mg/kg orally once daily,2.7
same,Tumor volume T/C%,breast cancer MDA-MB-436 [1]; 0.03 mg/kg orally once daily,40.8%
same,Tumor weight (g) X±SD,breast cancer MDA-MB-436 [1]; 0.03 mg/kg orally once daily,1.09 ± 0.29 g
same,Body weight (g) X±SD End,breast cancer MDA-MB-436 [1]; 0.03 mg/kg orally once daily,21.6 ± 0.7 g
same,Tumor volume (mm^3) X±SD End,breast cancer MDA-MB-436 [1]; 0.03 mg/kg orally once daily,739.4±308.7 mm^3
same,Body weight (g) X±SD Start,breast cancer MDA-MB-436 [1]; 0.03 mg/kg orally once daily,22.6 ± 0.7 g
same,Tumor volume (mm^3) X±SD Start,breast cancer MDA-MB-436 [1]; 0.03 mg/kg orally once daily,275.0±68.1 mm^3
same,RTV,breast cancer MDA-MB-436 [1]; 0.1 mg/kg orally once daily,0.8
same,Tumor volume T/C%,breast cancer MDA-MB-436 [1]; 0.1 mg/kg orally once daily,12.6%
same,Tumor weight (g) X±SD,breast cancer MDA-MB-436 [1]; 0.1 mg/kg orally once daily,0.29 ± 0.09 g
same,Body weight (g) X±SD End,breast cancer MDA-MB-436 [1]; 0.1 mg/kg orally once daily,21.6 ± 0.7 g
same,Tumor volume (mm^3) X±SD End,breast cancer MDA-MB-436 [1]; 0.1 mg/kg orally once daily,228.0±75.9 mm^3
same,Body weight (g) X±SD Start,breast cancer MDA-MB-436 [1]; 0.1 mg/kg orally once daily,22.3 ± 1.0 g
same,Tumor volume (mm^3) X±SD Start,breast cancer MDA-MB-436 [1]; 0.1 mg/kg orally once daily,274.7±73.8 mm^3
same,RTV,breast cancer MDA-MB-436 [1]; 0.3 mg/kg orally once daily,0.3
same,Tumor volume T/C%,breast cancer MDA-MB-436 [1]; 0.3 mg/kg orally once daily,3.8%
same,Tumor weight (g) X±SD,breast cancer MDA-MB-436 [1]; 0.3 mg/kg orally once daily,0.09 ± 0.08 g
same,complete tumor regression (mice out of 6),"breast cancer MDA-MB-436 [1]; 0.3 mg/kg orally once daily, at the end of treatment",2/6
same,Body weight (g) X±SD End,breast cancer MDA-MB-436 [1]; 0.3 mg/kg orally once daily,22.0 ± 0.9 g
same,Tumor volume (mm^3) X±SD End,breast cancer MDA-MB-436 [1]; 0.3 mg/kg orally once daily,71.0±62.5 mm^3
same,Body weight (g) X±SD Start,breast cancer MDA-MB-436 [1]; 0.3 mg/kg orally once daily,22.3 ± 0.8 g
same,Tumor volume (mm^3) X±SD Start,breast cancer MDA-MB-436 [1]; 0.3 mg/kg orally once daily,281.9±67.4 mm^3
same,half-life,in vivo,8.4 h
same,anti-tumor efficacy in the model of large-volume tumors,breast cancer MDA-MB-436 [2],complete regression of tumors
same,rate of tumor regression compared to the compounds 1 and 21,breast cancer MDA-MB-436 [2],faster rate of tumor regression
